Entries after “also recorded” stand apart in the source; their conditions may differ. Where two headings read alike, the source gives them in different places.
What was measured:
WT EGFR [1] = biological target: T1, WT EGFR (Homo sapiens, UniProt P00533); test: In vitro TR-FRET assay, WT EGFR; format: binding; details: for WT EGFR pIC50: Table S1, TR FRET, n=1, 2 technical replicates
DM EGFR = test: In vitro TR-FRET assay, DM EGFR; format: binding
[2] = tested on: pEGFR (Tyr1068) in A431 cells; test: Cellular pEGFR inhibition by HTRF (A431); format: cell-based; details: for IC50: Homo sapiens, A-431, Figure 5a, read-out: pEGFR pIC50 (converted); for pEGFR pIC50: Figure 5a
Description: Cells were plated at 20 000 cells per well in 96-well plates and placed at 37 °C with 5% CO2. […] Compound and media were removed from the cells, and then 50 μL of HTRF lysis buffer was added (lysis buffer was diluted from 4× stock to 1× in deionized (DI) water, with 1% blocking agent also added). Cells were lysed on a plate shaker (2000 rpm) for 30 min at room temperature. pEGFR expression was monitored using the Cisbio Phospho-EGFR (Tyr1068) cellular kit (64EG1PEH). Total EGFR expression was monitored using the Cisbio Total EGFR cellular kit (64NG1PEH) as per the manufacturer’s instructions. […] Results were calculated as the ratio of pEGFR/total EGFR and then the percentage of 0 μM control.

A431 cells = test: Growth inhibition in adherent cell lines (SRB, 72 h); format: cell-based; details: for GI50: Homo sapiens, A-431, 72 h
Description: On day 1, the compounds were diluted to the required concentration in DMEM +10% FBS media, ensuring that the final DMSO concentration was 0.1% once added to cells. […] Cells were then fixed by adding 50% (wt/vol) TCA to each well of the plate and left at 4 °C for 1 h. The plates were then washed thoroughly with water, 100 μL of 0.4% SRB solution was added to the wells, and left at room temperature for 30 min. The plates were rinsed with 1% AcOH and then left to air-dry in a drying cabinet for 1 h. […] The absorbance was read at 570 nm using a FluoStar Omega plate reader.

WT EGFR [3] = biological target: T1, WT EGFR; test: Protein mass spectrometry after incubation of compound with EGFR; format: binding; details: for adduct formation with EGFR / release of 5FU from EGFR adduct: 15 μM compound, 4 μM EGFR, 4 hr; for adduct formation with EGFR: ambient temperature; for release of 5FU from EGFR adduct: protein mass spectrometry; for mass increase of adduct after loss of 5FU / mass increase of initial (intact) adduct: relative to apo protein
Description: Compounds were suspended in 10 mM in 100% DMSO and were added to 4 μM of EGFR to achieve the final compound concentration of 15 μM in 1% DMSO, in 25 mM Tris pH 8, 150 mM NaCl, 5% Glycerol before incubating at an ambient temperature for 4 hr time prior to analysis.
Following incubation, intact protein masses were determined using an Agilent 6530 Accurate Mass dual AJS/ESI Q-TOF instrument coupled to an Agilent 1260 Infinity II LC system. 1 μL of purified protein (∼1 mg/mL) was injected onto an MS Pac DS-10 Desalter cartridge ((Thermo Fisher Scientific), PN: 089170, 2.1 × 10 mm) for desalting and reversed phase separation at 70 °C. The mobile phase was 0.1% (v/v) formic acid in LC-MS grade water (A) and LC-MS grade acetonitrile (B) with separation performed over 7.5 min. […] Proteins were detected in positive ion mode using electrospray ionization with a nebulizer pressure of 45 psig, a drying gas flow of 5 L/min, and a source gas temperature of 325 °C. A sheath gas temperature of 400 °C, a gas flow of 11 L/min, a capillary voltage of 3500 V, and a nozzle voltage of 2000 V were also used. Mass spectra were acquired using MassHunter Acquisition software (version B.08.00) over a mass range of 100–3000 m/z at a rate of 1 spectra/s and 1000 ms/spectrum in the standard mass range (3200 m/z) at 2 GHz. The instrument had been calibrated over the selected mass range prior to analysis.

[4] = tested on: EGFR phosphorylation in A431 cells; test: pEGFR inhibition by Western blot in A431; format: cell-based; details: 4 h
Description: Appropriately treated cells were lysed in Phosphosafe extraction buffer combined with cOmplete Protease Inhibitor Cocktail (Merck) prepared as per the manufacturer’s instructions.
Samples were prepared in Eppendorf vials by diluting them to the required concentrations with phosphate-buffered saline (PBS), and the appropriate amount of 4X XT sample buffer was added. This solution was vortexed, centrifuged, then placed at 98 °C for 5 min, and then centrifuged to remove the residue. Migration was performed using a 4–20% Criterion TGX Precast Midi Protein Gel, 18 well, 30 μL (Cat. No. 5671094) placed in a Criterion running tank (Cat. No. 1656001) and also using PowerPac HC high-current power supply (Bio-Rad) electrodes. Nitrocellulose membrane used was an Amersham Protran Premium 0.45 Nitrocellulose membrane (Cat. No. 15269794) and Ponceau S Stain (Sigma-Aldrich Cat. No. p7170).
Primary antibodies raised to EGFR (CST 4267) or pEGFR (CST 3777) were diluted (1:1000) in 5% BSA w/v. Loading control antibodies were prepared in 5% milk w/v with 1 × TBS/T (0.1 v/v) solution at a determined optimum concentration.
Secondary HRP-conjugated antibodies were diluted in 5% milk with w/v in 1 × TBS/T (0.1 v/v) solution at a determined optimum concentration.
Proteins were detected using the Clarity ECL Western blotting substrate (Bio-Rad).

[5] = 19F NMR 5FU release study with N-acetyl-L-cysteine methyl ester; format: physicochemical; details: reaction with N-acetyl cysteine
Description: Reaction of the model systems with N-acetyl-L-cysteine methyl ester was assessed by ^19F NMR.
Acrylate-5FU conjugate (0.125 M) in d^6-DMSO (0.25 mL) was prepared in an NMR tube. N-Acetyl cysteine methyl ester (1.9 mg, 0.011 mmol) or glutathione (3.4 mg, 0.011 mmol) in d^6-DMSO was prepared. The cysteine/glutathione solution was added to the NMR tube, and the tube was inverted several times. The ^19F NMR was taken immediately for t = 0 measurement. Further measurements were taken at t = 30 min and t = 60 min.

[6] = Compound media stability (LC-MS); format: physicochemical; details: DMEM + 10% FCS, 1.0 μM, 25 h
Description: Compound 53 (0.760 mg, 1.51 μmol) was dissolved in DMSO […] and then added to DMEM (Sigma-Aldrich 5796) + 10% FCS media (1.50 mL) such that the final concentration was 1.0 μM. Liquid chromatography-mass spectrometry (LC-MS) analysis was carried out at t = 0, 1, 3, and 25 h.

[7] = Table S1, TR FRET, n=1, 2 technical replicates
[8] = A431 cell viability, 72 h, Figure 5c
[9] = WT EGFR, TR-FRET, n > 2, Figure 5a and text
[10] = A431 cell viability, 72 h, Figure 6b, single agents and equimolar combination

In the case of “(S, E)-1-(3-(3-((4-((3-Chloro-4-fluorophenyl)amino)-7-methoxyquinazolin-6-yl)oxy)pyrrolidin-1-yl)-3-oxoprop-1-en-1-yl)-5-fluoropyrimidine-2,4(1H,3H)-dione [compound 50]”, the “WT EGFR pIC50” value (WT EGFR [1]) is reported as 5.9 and the “DM EGFR pIC50” value (DM EGFR; [7]) is reported as 6.6.

With “(E)-1-(3-(4-((4-((3-Chloro-4-fluorophenyl)amino)-7-methoxyquinazolin-6-yl)oxy)piperidin-1-yl)-3-oxoprop-1-en-1-yl)-5-fluoropyrimidine-2,4(1H,3H)-dione [compound 51]” the “WT EGFR pIC50” value (WT EGFR [1]) was 6.6.

`COc1cc2ncnc(Nc3ccc(F)c(Cl)c3)c2cc1NC(=O)/C=C/CN1CCCCC1` [compound 2, dacomitinib, reference compound] gave an IC50 [2] of 10 nM and a GI50 (A431 cells; [8]) of 79.4 nM.

With “(E)-1-(3-(3-((4-((3-Chloro-4-fluorophenyl)amino)-7-methoxyquinazolin-6-yl)oxy)azetidin-1-yl)-3-oxoprop-1-en-1-yl)-5-fluoropyrimidine-2,4(1H,3H)-dione [compound 48]” the “adduct formation with EGFR” value (WT EGFR [3]) was “covalent adduct formation”, the “release of 5FU from EGFR adduct” value (WT EGFR [3]) was “without evidence of the release of 5FU” and the “WT EGFR pIC50” value (WT EGFR [1]) was 6.6. The “DM EGFR pIC50” value (DM EGFR; [7]) was 6.7.

With “(R, E)-1-(3-(3-((4-((3-Chloro-4-fluorophenyl)amino)-7-methoxyquinazolin-6-yl)oxy)pyrrolidin-1-yl)-3-oxoprop-1-en-1-yl)-5-fluoropyrimidine-2,4(1H,3H)-dione [compound 49]” the “WT EGFR pIC50” value (WT EGFR [1]) was 5.6 and the “DM EGFR pIC50” value (DM EGFR; [7]) was 6.4.

With “(E)-N-(4-((3-Chloro-4-fluorophenyl)amino)-7-methoxyquinazolin-6-yl)-3-(5-fluoro-2,4-dioxo-3,4-dihydropyrimidin-1(2H)-yl)acrylamide [compound 57]” the “adduct formation with EGFR” value (WT EGFR [3]) was “clear adduct”, the “release of 5FU from EGFR adduct” value (WT EGFR [3]) was “negligible release of 5FU” and the “mass increase of adduct after loss of 5FU” value (WT EGFR [3]) was 371 Da. For the same compound, the “mass increase of initial (intact) adduct” value (WT EGFR [3]) was 501 Da, the “EGFR pIC50” value (WT EGFR [1]; [9]) was 7.3 and the “pEGFR pIC50” value [2] was 5.6. The “inhibition of EGFR phosphorylation at 10 μM” value [4] was “little inhibition”, the antiproliferative effect (A431 cells; A431, 72 h growth inhibition) was “no antiproliferative effects” and the pGI50 (A431 cells; supplementary CSV column) was <5.0.

In the case of `COc1cc2ncnc(Nc3ccc(F)c(Cl)c3)c2cc1OC(=O)/C=C/CN1CCCCC1` [compound 56, 4-((3-Chloro-4-fluorophenyl)amino)-7-methoxyquinazolin-6-yl (E)-4-(piperidin-1-yl)but-2-enoate], the “EGFR pIC50” value (WT EGFR [1]; supplementary CSV column) is reported as 8.1 +/- 0.82, the IC50 [2] is reported as 5010 nM and the “inhibition of EGFR phosphorylation at 1 μM” value [4] is reported as “some inhibition”. For the same compound, the GI50 (A431 cells; [8]) was > 10000 nM and the GI50 (A431 cells; [10]) was 10000 nM.

In the case of “3-((4-(1-Methyl-1H-indol-3-yl)pyrimidin-2-yl)amino)-4-nitrophenyl (E)-3-(5-Fluoro-2,4-dioxo-3,4-dihydropyrimidin-1(2H)-yl)acrylate [compound 39]”, the “adduct formation with EGFR” value (WT EGFR [3]) is reported as “evidence of adduct formation”, the “release of 5FU from EGFR adduct” value (WT EGFR [3]) is reported as “without evidence of the release of 5FU” and the “WT EGFR pIC50” value (WT EGFR [1]) is reported as < 4.0. For the same compound, the “DM EGFR pIC50” value (DM EGFR; [7]) was 3.7.

With “2-Fluoro-4-methoxy-5-((4-(1-methyl-1H-indol-3-yl)pyrimidin-2-yl)amino)phenyl (E)-3-(5-fluoro-2,4-dioxo-3,4-dihydropyrimidin-1(2H)-yl)acrylate [compound 35]” the “adduct formation with EGFR” value (WT EGFR [3]) was “evidence of adduct formation”, the “release of 5FU from EGFR adduct” value (WT EGFR [3]) was “without evidence of the release of 5FU” and the “WT EGFR pIC50” value (WT EGFR [1]) was < 4.0. The “DM EGFR pIC50” value (DM EGFR; [7]) was 5.5.

For `O=c1[nH]cc(F)c(=O)[nH]1` [5-FU, 5-fluorouracil, reference compound], the GI50 (A431 cells; A431 cell viability, 72 h, Figure 6a, single agents and equimolar combination) was 631 nM and the GI50 (A431 cells; [10]) was 631 nM.

With “4-((3-Chloro-4-fluorophenyl)amino)-7-methoxyquinazolin-6-yl (E)-3-(5-fluoro-2,4-dioxo-3,4-dihydropyrimidin-1(2H)-yl)acrylate [compound 53]” the “time to complete release of 5FU” value [5] was 1 h, the “adduct formation with EGFR” value (WT EGFR [3]) was “two new major adducts” and the “release of 5FU from EGFR adduct” value (WT EGFR [3]) was “loss of 5FU from the complex”. For the same compound, the “mass increase of adduct after loss of 5FU” value (WT EGFR [3]) was 372 Da, the “mass increase of initial (intact) adduct” value (WT EGFR [3]) was 502 Da and the “EGFR pIC50” value (WT EGFR [1]; [9]) was 6.8. The “pEGFR pIC50” value [2] was 7.8, the “inhibition of EGFR phosphorylation at 1 μM” value [4] was “not at 1 μM” and the “inhibition of EGFR phosphorylation at 10 μM” value [4] was “marked inhibition”. The pGI50 (A431 cells; [8]) was 5.3, the “hydrolysis in cell media” value [6] was “some hydrolysis did occur” and the “release of 5FU in cell media” value [6] was “no observation of the release of 5FU”.

For “(E)-N-(3-((5-Chloro-4-(pyrazolo[1,5-a]pyridin-3-yl)pyrimidin-2-yl)amino)-4-methoxyphenyl)-3-(5-fluoro-2,4-dioxo-3,4-dihydropyrimidin-1(2H)-yl)acrylamide [compound 30]”, the “adduct formation with EGFR” value (WT EGFR [3]) was “an adduct formed”, the “release of 5FU from EGFR adduct” value (WT EGFR [3]) was “without 5FU release; also recorded: no evidence of the release of 5FU” and the “mass increase of initial (intact) adduct” value (WT EGFR [3]) was 548 Da. The “WT EGFR pIC50” value (WT EGFR [1]) was 5.7 and the “DM EGFR pIC50” value (DM EGFR) was 6.8.
